Experimental findings from ChEMBL document CHEMBL1641425, “Discovery of 1-(3,4-dichlorophenyl)-N,N-dimethyl-1,2,3,4-tetrahydroquinolin-4-amine, a dual serotonin and dopamine reuptake inhibitor” (Bioorg Med Chem Lett, 2011) are described below.

One may read the IC50 as the concentration that inhibits the measured activity by half. The term half-life denotes the time in which the quantity being followed falls by half. Low readings indicate rapid decline, high ones slow decline.

The target in data set [1] is Sodium-dependent noradrenaline transporter (Homo sapiens, UniProt P23975). Nature of the data set: Inhibition of human recombinant norepinephrine transporter.
Data set [2] deals with Sodium-dependent dopamine transporter (Homo sapiens, UniProt Q01959). Nature of the data set: Inhibition of human recombinant dopamine transporter.
Data set [3] has as its target Sodium-dependent serotonin transporter (Homo sapiens, UniProt P31645). The data set is described as follows: Inhibition of human recombinant 5HT transporter.
In another data set the target is Cytochrome P450 3A4 (Homo sapiens, UniProt P08684). Nature of the data set: Inhibition of CYP3A4. Format: ADME.
In another data set the target is Cytochrome P450 2C9 (Homo sapiens, UniProt P11712). The data set is described as follows: Inhibition of CYP2C9. Format: ADME.
Data set [4] in a line: Half life in mouse microsomes. Format: ADME, Microsome.
Data set [5] can be described thus: Half life in human microsomes. Format: ADME, Microsome.
In the next data set the target is Cytochrome P450 2D6 (Homo sapiens, UniProt P10635). Nature of the data set: Inhibition of CYP2D6. Format: ADME.
Another data set addresses Cytochrome P450 2C19 (Homo sapiens, UniProt P33261). Nature of the data set: Inhibition of CYP2C19. Format: ADME.
The nature of data set [6]: Inhibition of CYP1A. Format: ADME.
For data set [7], the target named is Voltage-gated inwardly rectifying potassium channel KCNH2 (Homo sapiens, UniProt Q12809).
Voltage-gated inwardly rectifying potassium channel KCNH2, sequence (Q12809 whole entry): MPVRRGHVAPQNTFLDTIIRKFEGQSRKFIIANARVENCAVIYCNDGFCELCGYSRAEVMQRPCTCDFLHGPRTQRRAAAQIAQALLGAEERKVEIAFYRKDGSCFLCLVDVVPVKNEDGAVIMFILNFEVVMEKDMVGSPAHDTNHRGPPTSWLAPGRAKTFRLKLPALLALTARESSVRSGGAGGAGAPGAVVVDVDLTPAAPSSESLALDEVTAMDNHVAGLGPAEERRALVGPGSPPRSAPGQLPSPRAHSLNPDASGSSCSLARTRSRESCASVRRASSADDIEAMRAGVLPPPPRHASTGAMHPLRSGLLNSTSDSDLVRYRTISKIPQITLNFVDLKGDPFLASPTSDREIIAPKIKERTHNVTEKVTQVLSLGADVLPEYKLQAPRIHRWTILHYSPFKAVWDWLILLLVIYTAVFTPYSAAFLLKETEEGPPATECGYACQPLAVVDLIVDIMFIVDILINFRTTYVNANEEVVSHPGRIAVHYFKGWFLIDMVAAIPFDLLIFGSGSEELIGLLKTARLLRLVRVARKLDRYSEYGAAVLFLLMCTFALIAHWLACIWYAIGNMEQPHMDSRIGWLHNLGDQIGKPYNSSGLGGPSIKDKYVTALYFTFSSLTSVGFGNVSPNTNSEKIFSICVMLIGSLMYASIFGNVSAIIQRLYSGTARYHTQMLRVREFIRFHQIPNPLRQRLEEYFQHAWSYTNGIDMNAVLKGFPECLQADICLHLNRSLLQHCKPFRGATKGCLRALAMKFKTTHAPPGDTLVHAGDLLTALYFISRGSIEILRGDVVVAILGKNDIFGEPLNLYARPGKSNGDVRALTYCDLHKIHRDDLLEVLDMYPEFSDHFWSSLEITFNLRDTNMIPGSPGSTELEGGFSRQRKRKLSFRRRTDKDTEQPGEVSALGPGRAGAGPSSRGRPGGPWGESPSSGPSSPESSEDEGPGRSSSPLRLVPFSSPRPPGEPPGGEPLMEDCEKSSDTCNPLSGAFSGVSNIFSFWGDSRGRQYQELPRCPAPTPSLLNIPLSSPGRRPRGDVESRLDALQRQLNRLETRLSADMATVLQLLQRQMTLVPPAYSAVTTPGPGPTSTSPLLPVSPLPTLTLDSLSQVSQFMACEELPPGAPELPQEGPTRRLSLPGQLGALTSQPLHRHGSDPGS

Sodium-dependent serotonin transporter, sequence (P31645 whole entry): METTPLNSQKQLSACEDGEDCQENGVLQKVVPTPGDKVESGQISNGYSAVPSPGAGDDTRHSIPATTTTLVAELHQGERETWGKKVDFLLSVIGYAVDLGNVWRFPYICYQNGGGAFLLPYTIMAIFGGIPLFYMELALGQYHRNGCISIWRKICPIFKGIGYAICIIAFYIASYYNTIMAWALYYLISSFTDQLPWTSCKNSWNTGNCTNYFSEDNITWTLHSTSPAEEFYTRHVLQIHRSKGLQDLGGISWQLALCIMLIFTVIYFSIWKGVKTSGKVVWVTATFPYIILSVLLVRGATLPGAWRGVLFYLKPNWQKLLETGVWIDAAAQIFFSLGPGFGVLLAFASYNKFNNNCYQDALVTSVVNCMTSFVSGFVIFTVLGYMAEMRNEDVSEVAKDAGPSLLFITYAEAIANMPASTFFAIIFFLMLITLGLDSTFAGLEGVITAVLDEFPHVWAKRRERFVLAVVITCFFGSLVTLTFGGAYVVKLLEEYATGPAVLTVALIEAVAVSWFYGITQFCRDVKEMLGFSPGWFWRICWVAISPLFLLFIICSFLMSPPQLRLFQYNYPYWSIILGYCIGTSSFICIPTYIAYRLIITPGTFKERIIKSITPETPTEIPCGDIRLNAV
Cytochrome P450 3A4, sequence (P08684 whole entry): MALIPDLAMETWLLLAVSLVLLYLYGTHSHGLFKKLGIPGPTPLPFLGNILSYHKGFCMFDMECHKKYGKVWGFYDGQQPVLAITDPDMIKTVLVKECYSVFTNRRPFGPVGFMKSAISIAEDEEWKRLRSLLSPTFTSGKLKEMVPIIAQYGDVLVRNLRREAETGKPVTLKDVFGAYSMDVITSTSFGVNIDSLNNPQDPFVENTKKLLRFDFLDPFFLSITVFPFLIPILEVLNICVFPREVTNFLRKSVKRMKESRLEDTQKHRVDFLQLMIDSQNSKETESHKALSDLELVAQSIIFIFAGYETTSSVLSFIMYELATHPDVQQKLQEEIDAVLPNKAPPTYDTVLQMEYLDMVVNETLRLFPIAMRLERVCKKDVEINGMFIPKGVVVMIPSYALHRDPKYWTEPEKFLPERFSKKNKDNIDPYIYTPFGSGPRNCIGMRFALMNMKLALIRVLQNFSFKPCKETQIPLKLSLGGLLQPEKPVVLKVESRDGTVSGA
Cytochrome P450 2C9, sequence (P11712 whole entry): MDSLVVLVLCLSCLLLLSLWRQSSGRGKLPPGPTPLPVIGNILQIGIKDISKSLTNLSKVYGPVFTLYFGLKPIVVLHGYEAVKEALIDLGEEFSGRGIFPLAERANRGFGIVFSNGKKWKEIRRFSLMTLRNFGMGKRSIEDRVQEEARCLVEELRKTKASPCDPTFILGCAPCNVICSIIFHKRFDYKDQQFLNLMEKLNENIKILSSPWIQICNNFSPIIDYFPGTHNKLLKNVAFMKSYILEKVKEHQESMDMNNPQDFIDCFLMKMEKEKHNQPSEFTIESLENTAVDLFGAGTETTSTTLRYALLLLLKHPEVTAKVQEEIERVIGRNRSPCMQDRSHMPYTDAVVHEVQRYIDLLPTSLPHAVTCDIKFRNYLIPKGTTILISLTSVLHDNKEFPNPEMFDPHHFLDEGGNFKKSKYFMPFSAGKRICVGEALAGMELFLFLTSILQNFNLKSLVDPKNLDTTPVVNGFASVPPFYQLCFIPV
Cytochrome P450 2C19, sequence (P33261 whole entry): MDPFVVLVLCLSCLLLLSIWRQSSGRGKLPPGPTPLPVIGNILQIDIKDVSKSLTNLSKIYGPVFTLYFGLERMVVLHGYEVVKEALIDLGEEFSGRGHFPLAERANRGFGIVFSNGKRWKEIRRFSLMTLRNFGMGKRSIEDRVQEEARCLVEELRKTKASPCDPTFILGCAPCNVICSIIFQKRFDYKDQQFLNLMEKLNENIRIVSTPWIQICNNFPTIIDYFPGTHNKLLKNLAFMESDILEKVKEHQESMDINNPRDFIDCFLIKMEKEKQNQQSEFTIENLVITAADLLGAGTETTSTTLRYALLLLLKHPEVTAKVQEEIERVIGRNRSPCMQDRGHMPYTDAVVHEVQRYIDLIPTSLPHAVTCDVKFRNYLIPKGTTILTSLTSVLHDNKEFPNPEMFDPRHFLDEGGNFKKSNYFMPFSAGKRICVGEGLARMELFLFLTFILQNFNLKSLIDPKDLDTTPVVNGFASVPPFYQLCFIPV
Sodium-dependent dopamine transporter, sequence (Q01959 whole entry): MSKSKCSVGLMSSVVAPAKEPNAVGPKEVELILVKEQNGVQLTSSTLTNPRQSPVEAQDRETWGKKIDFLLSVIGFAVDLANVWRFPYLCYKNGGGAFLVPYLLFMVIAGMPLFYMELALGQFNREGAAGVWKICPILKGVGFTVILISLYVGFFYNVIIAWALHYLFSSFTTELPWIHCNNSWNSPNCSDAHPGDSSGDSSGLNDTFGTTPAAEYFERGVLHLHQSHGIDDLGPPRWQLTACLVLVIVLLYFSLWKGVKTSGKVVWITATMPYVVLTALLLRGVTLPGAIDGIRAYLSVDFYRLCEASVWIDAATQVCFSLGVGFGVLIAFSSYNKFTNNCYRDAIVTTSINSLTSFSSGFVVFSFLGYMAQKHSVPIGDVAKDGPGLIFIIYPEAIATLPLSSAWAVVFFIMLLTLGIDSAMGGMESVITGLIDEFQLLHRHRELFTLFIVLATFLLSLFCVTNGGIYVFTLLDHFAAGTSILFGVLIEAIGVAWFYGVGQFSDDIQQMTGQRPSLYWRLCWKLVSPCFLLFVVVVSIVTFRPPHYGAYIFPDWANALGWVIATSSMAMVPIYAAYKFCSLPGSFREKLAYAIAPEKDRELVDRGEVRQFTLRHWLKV
Cytochrome P450 2D6, sequence (P10635 whole entry): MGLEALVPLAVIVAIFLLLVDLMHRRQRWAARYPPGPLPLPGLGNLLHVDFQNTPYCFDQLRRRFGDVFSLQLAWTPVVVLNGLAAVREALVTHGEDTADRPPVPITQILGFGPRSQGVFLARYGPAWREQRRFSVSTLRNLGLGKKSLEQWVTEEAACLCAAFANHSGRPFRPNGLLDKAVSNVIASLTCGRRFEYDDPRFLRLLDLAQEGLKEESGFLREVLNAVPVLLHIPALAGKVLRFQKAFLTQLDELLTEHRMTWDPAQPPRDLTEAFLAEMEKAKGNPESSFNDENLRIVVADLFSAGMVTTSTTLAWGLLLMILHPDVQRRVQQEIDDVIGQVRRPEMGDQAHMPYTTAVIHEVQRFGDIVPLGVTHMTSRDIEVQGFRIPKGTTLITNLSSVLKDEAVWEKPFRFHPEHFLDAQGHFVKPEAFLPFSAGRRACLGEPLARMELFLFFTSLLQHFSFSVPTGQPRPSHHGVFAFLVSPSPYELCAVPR
Sodium-dependent noradrenaline transporter, sequence (P23975 whole entry): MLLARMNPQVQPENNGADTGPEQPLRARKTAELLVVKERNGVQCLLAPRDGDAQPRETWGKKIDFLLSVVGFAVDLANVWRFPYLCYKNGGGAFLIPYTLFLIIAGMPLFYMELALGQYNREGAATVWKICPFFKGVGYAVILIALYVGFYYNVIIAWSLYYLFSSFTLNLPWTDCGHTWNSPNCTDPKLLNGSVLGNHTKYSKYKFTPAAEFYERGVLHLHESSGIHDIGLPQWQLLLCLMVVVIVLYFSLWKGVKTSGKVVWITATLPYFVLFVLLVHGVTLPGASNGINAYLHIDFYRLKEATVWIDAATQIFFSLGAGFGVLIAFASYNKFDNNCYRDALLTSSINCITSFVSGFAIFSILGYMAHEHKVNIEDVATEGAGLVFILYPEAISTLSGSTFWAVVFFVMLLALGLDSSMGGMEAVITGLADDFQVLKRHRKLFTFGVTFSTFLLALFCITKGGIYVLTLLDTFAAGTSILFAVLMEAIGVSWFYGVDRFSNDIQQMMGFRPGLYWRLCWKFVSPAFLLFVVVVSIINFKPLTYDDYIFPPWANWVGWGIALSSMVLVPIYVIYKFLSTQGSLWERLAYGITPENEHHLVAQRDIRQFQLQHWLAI

Regarding `NC1Cc2ccccc2N(c2ccc(Cl)c(Cl)c2)C1` (stereo unspecified), the IC50 in data set [1] was 2600 nM; in data set [2], 605 nM; in data set [3], 2550 nM.

Take `CNC1Cc2ccccc2N(c2ccc(Cl)c(Cl)c2)C1` (stereo unspecified): the IC50 in data set [1] came out at 1010 nM; in data set [2], 177 nM; in data set [3] it was 985 nM.

Consider `CN(C)C1Cc2ccccc2N(c2ccc(Cl)c(Cl)c2)C1` (stereo unspecified), for which the half-inhibitory concentration (IC50) in data set [1] came to 1860 nM; in data set [2] it was 122 nM; in [3] it was 436 nM.

In the case of `CN(C)C1CCN(c2ccc(Cl)c(Cl)c2)c2ccccc21` (stereo unspecified), the IC50 in [1] was determined as 7140 nM; in data set [2] it was 5030 nM; in data set [3] it was 3 nM.

As to `NC1CCN(c2ccc(Cl)c(Cl)c2)c2ccccc21` (stereo unspecified), the IC50 in data set [1] worked out at 926 nM; in data set [2], 246 nM; in [3], 650 nM.

As for `CN(C)[C@@H]1CCN(c2ccc(Cl)c(Cl)c2)c2ccccc21`, the IC50 is over 25 µM against Cytochrome P450 3A4; 0.25 µM against Cytochrome P450 2C9; 6.02 µM against Cytochrome P450 2D6; 1180 nM in data set [1]; 16 nM in data set [2]; 7 nM in data set [3]. Also, the IC50 (against Cytochrome P450 2C19; in [6]) was over 25 µM in each case. The figures for the half-life in [4] and in data set [5] were 0.3 min and over 300 min, respectively.

Consider `CN[C@@H]1CCN(c2ccc(Cl)c(Cl)c2)c2ccccc21`, for which the IC50 on Cytochrome P450 3A4 was over 25 µM; against Cytochrome P450 2C9, over 25 µM; against Cytochrome P450 2D6, 1.5 µM; in [1], 601 nM; in [2], 8 nM; in data set [3] it was 132 nM. The 50% inhibitory concentration (IC50) against Cytochrome P450 2C19 is 19 µM; in data set [7], 3.25 µM; in [6] it was over 25 µM. In addition, the half-life in data set [4] and in data set [5] was over 300 min in each case.

Take `CN[C@H]1Cc2ccccc2[C@@H](c2ccc(Cl)c(Cl)c2)C1`: in data set [2], the half-inhibitory concentration (IC50) amounted to 72 nM.

For the compound `N[C@H]1Cc2ccccc2N(c2ccc(Cl)c(Cl)c2)C1`, the IC50 in [1] came to 1850 nM; in data set [2] it was 465 nM; in data set [3] it was 2400 nM.

Turning to `N[C@@H]1CCN(c2ccc(Cl)c(Cl)c2)c2ccccc21`, the IC50 against Cytochrome P450 3A4 was over 25 µM; at Cytochrome P450 2C9, over 25 µM; at Cytochrome P450 2D6, 4.87 µM; in data set [1] it was 138 nM; in data set [2], 12 nM; in data set [3], 116 nM. In addition, the IC50 against Cytochrome P450 2C19 is over 25 µM; in data set [7], 3.5 µM; in data set [6], over 25 µM. Also, the half-life in data set [4] was 201 min; in data set [5], over 300 min.

Consider `CNC1CCN(c2ccc(Cl)c(Cl)c2)c2ccccc21` (stereo unspecified), for which the IC50 on Cytochrome P450 3A4 is over 25 µM; against Cytochrome P450 2C9, over 25 µM; against Cytochrome P450 2D6 it was 3 µM; in data set [1], 934 nM; in [2], 39 nM; in data set [3], 20 nM. Further, the IC50 against Cytochrome P450 2C19 was 14.1 µM; in data set [7] it was 7.8 µM; in data set [6], over 25 µM. In addition, the figures for the half-life in data set [4] and in data set [5] were 22 min and 199 min, respectively.

Regarding `CN[C@H]1Cc2ccccc2N(c2ccc(Cl)c(Cl)c2)C1`, the half-life in data set [4] was found to be 20 min; in data set [5], 237 min. In addition, the 50% inhibitory concentration (IC50) against Cytochrome P450 2D6 is 0.1 µM; in [1], 1250 nM; in data set [2], 100 nM; in [3], 128 nM.

For `CN(C)[C@H]1Cc2ccccc2N(c2ccc(Cl)c(Cl)c2)C1`, the results for the IC50 in data set [1], in [2] and in [3] were 3090 nM, 309 nM and 5560 nM, respectively.
